The assay concerns the target Thermolysin (Bacillus thermoproteolyticus, UniProt P00800). Conditions: liposomes exposing RJ111; linker Trp-Ile-Pro-Val-Ser-Leu-Arg-Ser-Gly.

Chain of Thermolysin (P00800 233-548, species assumed): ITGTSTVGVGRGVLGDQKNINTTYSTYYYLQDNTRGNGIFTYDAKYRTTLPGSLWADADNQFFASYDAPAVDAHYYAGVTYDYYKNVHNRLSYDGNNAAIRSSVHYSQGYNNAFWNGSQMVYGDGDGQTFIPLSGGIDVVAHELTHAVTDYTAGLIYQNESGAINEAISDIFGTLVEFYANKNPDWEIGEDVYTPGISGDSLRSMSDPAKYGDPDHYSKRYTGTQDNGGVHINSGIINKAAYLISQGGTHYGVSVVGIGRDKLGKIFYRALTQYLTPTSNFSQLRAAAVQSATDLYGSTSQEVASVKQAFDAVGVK
Procedure: The size and ζ-potential (zeta potential) of RJ111 formulated liposomes were measured before and after enzymatic cleavage of the RJ111 peptide linker using Thermolysin as a model enzyme. RJ111 formulated liposomes were mixed with a buffered solution of Thermolysine yielding final concentrations of: 2.2 mM lipid (220 μM RJ111), 220 μg/ml Thermolysine, 1 uM, ZnCl2 0.5 mM CaCl2, 30 mM HEPES and 125 mM NaCl. The reaction mixtures containing Thermolysine and RJ111 formulated in liposomes were heated to 37° C. for a period of 12 hours and the size and ζ-potential were subsequently measured in an equi-osmolar solution of 300 mM Glucose, 10 mM HEPES (pH 7.4) and 1 mM CaCl2. The ζ-potential and size of the non-cleaved RJ111 formulations were measured (ZetaPALS, Brookhaven Instruments Corp., Holtsville, N.Y., USA) in an equi-osmolar solution of 300 mM Glucose, 10 mM HEPES (pH 7.4) and 1 mM CaCl2.

As to “(C14)2-dap-Trp-Ile-Pro-Val-Ser-Leu-Arg-Ser-Gly-Glu-Glu-Glu-Glu-PEG2000-OH [RJ111]”, the “cleavage of peptide linker by Thermolysine” value was “efficiently was cleaved”.
